“Also recorded” adds a separate entry of the source.
Key:
Mv1Lu cells = test: [methyl-3H] thymidine incorporation (DNA synthesis), Mv1Lu cells; assay type: cell-based, mink
DR26 cells = test: [methyl-3H] thymidine incorporation, DR26 cells; assay type: cell-based, mink; conditions: DR26 cells, in the presence of insulin
Description: (A,B) DR26 cells were incubated with various concentrations as indicated of IGFBP-3 in the absence (A) and presence (B) of various concentrations of insulin. After 18 hr at 37° C., the [methyl-^3H] thymidine incorporation into cellular DNA was determined. (C,D,E) Mv1Lu, DR26 and R1B cells metabolically labeled with ^[…]-orthophosphate for 2 hr were treated with IGFBP-3 (1:g/ml) or insulin (10 nM) (C). DR26 cells metabolically labeled with ^[…]-orthophosphate for 2 hr were treated with or without IGFBP-3 (1 μg/ml) in the presence of various concentrations of TGF-β1 as indicated (D). Mv1Lu cells expressing αIβI and αIβII chimeric receptors (MB102-16 and MB102-9 cells, respectively) metabolically labeled with ^[…]-orthophosphate for 2 hr were treated with or without IGFBP-3 (1 μg/ml) or GM-CSF (1 nM) (E). After 2 hr at 37° C. (in the absence of […]-orthophosphate in the medium), the ^[…]-labeled IRS-2 was immunoprecipitated and analyzed by 7.5% SDS-PAGE and autoradiography. […]
Mv1Lu cells were plated on 24-well clustered dishes and incubated with various concentrations of TGF-β1 or IGFBP-3 in DMEM containing 0.1% fetal calf serum. After incubation at 37° C. for 18 hr, the cells were pulse-labeled with 1 μCi of [methyl-^3H]thymidine at 37° C. for 2 hr and the [methyl-^3H] thymidine incorporation into cellular DNA was determined as described previously (59). […]

IRS-2 [1] = test: 32P metabolic labeling and immunoprecipitation of IRS-2, Mv1Lu cells; assay type: cell-based, mink; conditions: Mv1Lu, IGFBP-3 1 μg/ml […] then factor 10 nM (TGF-β1 20 pM) 0.5 hr
32D/IR/IRS-2 cells = test: [methyl-3H] thymidine incorporation, 32D/IR/IRS-2 cells; assay type: cell-based, murine; conditions: insulin 10 nM
[2] = system: TβR-V purified from bovine liver plasma membranes; test: 125I-IGFBP-3 / 125I-TGF-β1 affinity labeling of purified TβR-V; assay type: binding; conditions: DSS, β1^25(41-65) 20 μM, RAP 10-40 μg/ml, α2M* 100 nM, lactoferrin 100 nM
TβR-V = test: 125I-ligand affinity labeling (binding and cross-linking) in Mv1Lu cells; parameters: species or system mink
Description: FIG. 2 depicts the effects of RAP on ^125I-IGFBP-3 (A) and ^125I-TGF-β1 binding (B) to TβR-V and on IGFBP-3-induced inhibition of DNA synthesis (C) in Mv1Lu cells. (A,B) Cells were incubated with ^125I-IGFBP-3 (10 nM) or ^125I-TGF-β1 (0.1 nM) in the presence of various concentrations of RAP as indicated. After 2.5 hr at 0° C., the ^125I-IGFBP-3-TβR-V complex or ^125I-TGF-β1-TGF-β receptor complexes were cross-linked by DSS and analyzed by autoradiography. The relative intensity of the ^125I-IGFBP-3-TβR-V complex or ^125I-TGF-β1-TGF-β receptor complex on the dried gel was quantified by a PhosphoImager. The arrow indicates the location of the ^125I-TGF-β-TβR-V complex or the ^125I-IGFBP-3-TβR-V complex. The bracket indicates the locations of the ^125I-TGF-β1-TβR-III and -TβR-II complexes. The ^125I-TGF-β1-TβR-I complex co-migrated with the dye front. The ^125I-TGF-β1-TβR-II complex can be seen upon longer time exposure of the autoradiogram. (C) Cells were incubated with various concentrations, as indicated, of IGFBP-3 and GST-RAP (100 μg/ml). […] After further incubation for 10 hr, the DNA synthesis of cells was determined by measuring [methyl-^3H] thymidine incorporation into cellular DNA. […]
Mv1Lu cells are a well-established model system for investigating TGF-β activities and receptor functions. […] After further incubation for 10 hr, DNA synthesis of the cells was determined.

IRS-2 [3] = test: 32P metabolic labeling and immunoprecipitation of IRS-2, MB102-16 cells; assay type: cell-based, mink; conditions: MB102-16 cells (αIβI); IGFBP-3 1 μg/ml, GM-CSF 1 nM
IRS-2 [4] = test: 32P metabolic labeling and immunoprecipitation of IRS-2, MB102-9 cells; assay type: cell-based, mink; conditions: MB102-9 cells (αIβII); IGFBP-3 1 μg/ml, GM-CSF 1 nM

With insulin: insulin [reference compound] the “Blocking of IGFBP-3-induced growth inhibition” value (Mv1Lu cells; Mv1Lu cells) was “completely blocked”, the “Effect alone on TGF-β1-induced inhibition of DNA synthesis” value (Mv1Lu cells; insulin 10 nM or cyclic RGD peptide 0.01 μg/ml alone) was “did not block; also recorded: Neither insulin (10 nM) nor the cyclic RGD peptide (0.01 μg/ml) alone affected” and the “Reversal of IGFBP-3 inhibition of DNA synthesis” value (DR26 cells) was “completely reversed”. The “Blocking of IGFBP-3-induced specific dephosphorylation of IRS-2 by growth factors/cytokines” value (IRS-2 [1]) was “blocked”, the “Effect on IGFBP-3-induced growth inhibition” value (32D/IR/IRS-2 cells) was “capable of blocking” and the “Effect on TGF-β1-induced growth inhibition” value (32D/IR/IRS-2 cells) was “partially reversing”.

With “RAP: receptor-associated protein, an LRP antagonist which blocks binding of all known ligands to LRP” the “^125I-TGF-β1 binding to purified TβR-V” value ([2]; 0.1 nM 125I-TGF-β1, […] 0° C.) was “appeared to inhibit”, the “^125I-IGFBP-3 binding to purified TβR-V” value ([2]; 10 nM 125I-IGFBP-3, […] 0° C.) was “appeared to inhibit” and the “^125I-TGF-β1 binding to TβR-V and TβR-III” value (TβR-V; 0.1 nM 125I-TGF-β1) was “only partially inhibited”. For the same substance, the “IC50, inhibition of ^125I-IGFBP-3 binding to TβR-V” value (TβR-V; 10 nM 125I-IGFBP-3) was ~5 µg/mL.

“GM-CSF: granulocyte/macrophage colony-stimulating factor” was tested, and the “Specific dephosphorylation (mobility change) of IRS-2” value (IRS-2 [3]) was “only induced specific dephosphorylation (electrophoretic mobility change) of IRS-2 in MB102-9 cells” and the “Specific dephosphorylation (mobility change) of IRS-2” value (IRS-2 [4]) was “induce moderate specific dephosphorylation”.

Reference: US7741283B2, “Compositions and methods for inhibiting cell proliferation” (St. Louis University, priority 2003, dated 2010)
